The values that follow come from US7053070B2, “Pyrido[2,3-d]pyrimidine-2,7-diamine kinase inhibitors” (Warner-Lambert Company, priority 2000, dated 2006).

Structures can show the parent of a compound that is named as a salt. A value given as a limit tells only on which side of the number the result lay.

The target of one data set is cdk1/cyclinB (Homo sapiens, UniProt P06493). Briefly: Cyclin dependent kinase 1 assay (cdk1/cyclinB), 32P incorporation, filter plate. To be noted: retinoblastoma substrate, 12 mM ATP, 25° C., 15 minutes; read-out: Inhibition of Cdks: IC50 Cdk1/B. The data set is classed as biochemical. How it is done:
(§1) Cyclin Dependent Kinase 1 and 2 Assays (cdk1/cyclinB, cdk2/cyclinA, cdk2/cyclinE)
(§2) Enzyme assays for IC50 determinations and kinetic evaluation are performed in a 96-well filter plate (Millipore MADVN6550) in a total volume of 0.1 mL of 20 mM TRIS (tris[hydroxymethyl]aminomethane), at pH 7.4, 50 mM NaCl, 1 mM dithiothreitol, 10 mM MgCl2, […] containing 0.25 μCi of [^32P]ATP, 20 ng of enzyme (either cdk1/B, cdk2/A, or cdk2E), 1 μg retinoblastoma and appropriate dilutions of the particular invention compound. All components except the ATP are added to the wells, and the plate is placed on a plate mixer for 2 minutes. The reaction is begun by addition of [^32P]ATP, and the plate is incubated at 25° C. for 15 minutes. The reaction is terminated by addition of 0.1 mL of 20% TCA. The plate is kept at 4° C. for at least 1 hour to allow the substrate to precipitate. The wells are then washed 5 times with 0.2 mL of 10% TCA and ^32P incorporation determined with a beta plate counter (Wallac Inc., Gaithersburg, Md.).

For another data set, the target named is cdk2/cyclinA (Homo sapiens, UniProt P24941). Put plainly: Cyclin dependent kinase 2 assay (cdk2/cyclinA), 32P incorporation, filter plate. The data set is classed as biochemical. To be noted: retinoblastoma substrate, 12 mM ATP, 25° C., 15 minutes; read-out: Inhibition of Cdks: IC50 Cdk2/A. How it is done: as §1, §2
In the next data set the target is cdk2/cyclinE (Homo sapiens, UniProt P24941). Put plainly: Cyclin dependent kinase 2 assay (cdk2/cyclinE), 32P incorporation, filter plate. The data set is classed as biochemical. To be noted: retinoblastoma substrate, 12 mM ATP, 25° C., 15 minutes; read-out: Inhibition of Cdks: IC50 Cdk2/E. The procedure:
as §1, §2

For a further data set, the target named is cdk4/cyclinD (Homo sapiens, UniProt P11802). Briefly: Cyclin Dependent Kinase 4 (cdk-4) Assay, 32P incorporation, filter plate. To be noted: retinoblastoma substrate, 25 μM ATP, 25° C., 15 minutes; read-out: Inhibition of Cdks: IC50 Cdk4D. Format: biochemical. How it is done:
Cyclin Dependent Kinase 4 (cdk-4) Assay
Enzyme assays for IC50 determinations and kinetic evaluation are performed in 96-well filter plates (Millipore MADVN6550). The total volume is 0.1 mL containing a final concentration of 20 mM TRIS (tris[hydroxymethyl]aminomethane), at pH 7.4, 50 mM NaCl, 1 mM dithiothreitol, 10 mM MgCl2, 25 μM ATP containing 0.25 μCi of [^32P]ATP, 20 ng of cdk4, 1 μg of retinoblastoma, and appropriate dilutions of a compound of the present invention. All components except the ATP are added to the wells, and the plate is placed on a plate mixer for 2 minutes. The reaction is started by adding [^32P]ATP, and the plate is incubated at 25° C. for 15 minutes. The reaction is terminated by addition of 0.1 mL of 20% trichloroacetic acid (TCA). The plate is kept at 4° C. for at least 1 hour to allow the substrate to precipitate. The wells are then washed 5 times with 0.2 mL of 10% TCA and ^32P incorporation is determined with a beta plate counter (Wallac Inc., Gaithersburg, Md.).

Sequence of cdk1/cyclinB (P06493 whole entry, species assumed): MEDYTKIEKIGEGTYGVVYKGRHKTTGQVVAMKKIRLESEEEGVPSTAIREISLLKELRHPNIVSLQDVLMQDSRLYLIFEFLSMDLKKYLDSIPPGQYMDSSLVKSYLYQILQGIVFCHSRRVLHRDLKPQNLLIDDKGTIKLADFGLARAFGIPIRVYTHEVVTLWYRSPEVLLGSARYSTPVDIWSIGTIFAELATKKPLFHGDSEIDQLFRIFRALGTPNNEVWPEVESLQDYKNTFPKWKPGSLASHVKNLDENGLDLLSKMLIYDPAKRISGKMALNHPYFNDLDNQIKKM
Sequence of cdk1/cyclinB (P14635 whole entry partner, species assumed): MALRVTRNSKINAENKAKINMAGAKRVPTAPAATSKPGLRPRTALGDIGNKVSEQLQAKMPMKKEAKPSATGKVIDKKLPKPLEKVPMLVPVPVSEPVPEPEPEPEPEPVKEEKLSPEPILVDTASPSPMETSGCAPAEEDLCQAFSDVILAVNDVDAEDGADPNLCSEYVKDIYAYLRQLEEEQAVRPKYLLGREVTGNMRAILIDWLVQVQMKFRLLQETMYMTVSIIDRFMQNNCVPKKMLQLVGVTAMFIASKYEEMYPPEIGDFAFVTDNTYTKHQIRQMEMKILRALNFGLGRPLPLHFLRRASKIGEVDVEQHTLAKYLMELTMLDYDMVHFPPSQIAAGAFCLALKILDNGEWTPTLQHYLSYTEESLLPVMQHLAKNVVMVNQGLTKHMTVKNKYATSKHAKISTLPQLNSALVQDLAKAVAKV
Sequence of cdk4/cyclinD (P11802 whole entry, species assumed): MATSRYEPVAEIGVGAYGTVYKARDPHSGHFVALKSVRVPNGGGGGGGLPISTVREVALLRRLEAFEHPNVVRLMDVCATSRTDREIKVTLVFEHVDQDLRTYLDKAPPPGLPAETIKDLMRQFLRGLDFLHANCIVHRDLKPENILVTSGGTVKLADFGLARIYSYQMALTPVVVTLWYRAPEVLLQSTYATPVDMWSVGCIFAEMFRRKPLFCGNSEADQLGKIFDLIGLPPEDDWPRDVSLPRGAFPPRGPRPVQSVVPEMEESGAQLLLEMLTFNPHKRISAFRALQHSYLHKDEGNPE
Sequence of cdk4/cyclinD (P24385 whole entry partner, species assumed): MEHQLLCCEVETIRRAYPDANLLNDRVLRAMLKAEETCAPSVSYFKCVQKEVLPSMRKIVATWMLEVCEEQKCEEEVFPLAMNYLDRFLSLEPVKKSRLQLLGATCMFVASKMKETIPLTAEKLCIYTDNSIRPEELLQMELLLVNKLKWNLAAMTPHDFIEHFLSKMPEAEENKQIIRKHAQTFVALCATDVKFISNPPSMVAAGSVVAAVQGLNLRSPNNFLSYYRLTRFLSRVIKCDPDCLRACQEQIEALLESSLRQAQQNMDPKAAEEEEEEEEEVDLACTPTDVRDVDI

With `Cc1cc(NC(=O)NC2CCCC2)nc2nc(Nc3ccc(N4CCNCC4)cc3)ncc12` [Compound 53, 1-Cyclopentyl-3-[5-methyl-2-(4-piperazin-1-yl-phenylamino)-pyrido[2,3-d]pyrimidin-7-yl]-urea], the melting point – broadly, the temperature, or range, at which the solid turns liquid – is 234 °C (dec.). Besides, at cdk1/cyclinB, the IC50 is > 5000 nM. The IC50 on cdk2/cyclinA was > 5000 nM. Further, the IC50 at cdk2/cyclinE was > 5000 nM. Moreover, the IC50 on cdk4/cyclinD is > 5000 nM.
`O=C(Nc1ccc2cnc(Nc3ccc(N4CCNCC4)cc3)nc2n1)N1CCOCC1` [Compound 85, Morpholine-4-carboxylic acid [2-(4-piperazin-1-yl-phenylamino)-pyrido[2,3-d]pyrimidin-7-yl]-amide]: the melting point is 190 °C (dec.). Moreover, the IC50 on cdk1/cyclinB was > 5000 nM. The IC50 at cdk2/cyclinA was > 5000 nM. The IC50 at cdk2/cyclinE is > 5000 nM. Also, the IC50 at cdk4/cyclinD is > 5000 nM.
Turning to `O=C(NCCCO)Nc1ccc2cnc(Nc3ccc(N4CCNCC4)cc3)nc2n1` [Compound 81, 1-(3-Hydroxy-propyl)-3-[2-(4-piperazin-1-yl-phenylamino)-pyrido[2,3-d]pyrimidin-7-yl]-urea], the melting point was 183 °C (dec.). The IC50 on cdk1/cyclinB was 2610 nM. Moreover, the IC50 at cdk2/cyclinA was 1560 nM. At cdk2/cyclinE, the IC50 amounted to 3250 nM. Further, at cdk4/cyclinD, the IC50 was found to be 500 nM.
For the molecule `CC(C)(C)NC(=O)Nc1ccc2cnc(Nc3ccc(N4CCN(C(=O)OC(C)(C)C)CC4)cc3)nc2n1` [Compound 79, 4-{4-[7-(3-tert-Butyl-ureido)-pyrido[2,3-d]pyrimidin-2-ylamino]-phenyl}-piperazine-1-carboxylic acid tert-butyl ester], the melting point was 225 °C (dec.). Also, the IC50 at cdk1/cyclinB was > 5000 nM. Moreover, the IC50 at cdk2/cyclinA stood at 1070 nM. In addition, on cdk2/cyclinE, the IC50 was > 5000 nM. Besides, the IC50 at cdk4/cyclinD is > 5000 nM.
For `Cc1cc(NC(=O)NC2CCCCC2)nc2nc(Nc3ccc(N4CCNCC4)cc3)ncc12` [Compound 12, 1-Cyclohexyl-3-[5-methyl-2-(4-piperazin-1-yl-phenylamino)-pyrido[2,3-d]pyrimidin-7-yl]-urea], the melting point was 238 °C (dec.). Also, the IC50 on cdk1/cyclinB is > 5000 nM. Further, the IC50 at cdk2/cyclinA is > 5000 nM. In addition, on cdk2/cyclinE, the IC50 is > 5000 nM. Further, the IC50 on cdk4/cyclinD stood at 2100 nM.
With `CC(C)C[C@@H](CO)NC(=O)Nc1ccc2cnc(Nc3ccc(N4CCNCC4)cc3)nc2n1` [Compound 83, 1-((S)-1-Hydroxymethyl-3-methyl-butyl)-3-[2-(4-piperazin-1-yl-phenylamino)-pyrido[2,3-d]pyrimidin-7-yl]-urea], the melting point was 185 °C (dec.). Besides, the IC50 on cdk1/cyclinB stood at 399 nM. Besides, the IC50 at cdk2/cyclinA worked out at 305 nM. Also, at cdk2/cyclinE, the IC50 turned out to be 315 nM. Further, the IC50 on cdk4/cyclinD came to 55 nM.
Regarding `C[C@@H]1CN(c2ccc(Nc3ncc4ccc(N(C)C(=O)NC5CCCCC5)nc4n3)cc2)C[C@H](C)N1` [Compound 106, 3-Cyclohexyl-1-{2-[4-(cis-3,5-dimethyl-piperazin-1-yl)-phenylamino]-pyrido[2,3-d]pyrimidin-7-}-1-methyl-urea], the melting point was 170 °C (dec.). The IC50 at cdk2/cyclinA is 350 nM. Also, the IC50 at cdk2/cyclinE is 440 nM.
As for `CNC(=O)Nc1cc(C)c2cnc(Nc3ccc(N4CCNCC4)cc3)nc2n1` [Compound 64, 1-Methyl-3-[5-methyl-2-(4-piperazin-1-yl-phenylamino)-pyrido[2,3-d]pyrimidin-7-yl]-urea], the melting point is 204 to 206 °C (dec.). Moreover, on cdk1/cyclinB, the IC50 is > 5000 nM. For the same molecule, the IC50 on cdk2/cyclinA was > 5000 nM. The IC50 on cdk2/cyclinE was > 5000 nM. For the same molecule, on cdk4/cyclinD, the IC50 was > 5000 nM.
`NCCNC(=O)Nc1ccc2cnc(Nc3ccc(F)cc3)nc2n1` [Compound 98, 1-(2-Amino-ethyl)-3-[2-(4-fluoro-phenylamino)-pyrido[2,3-d]pyrimidin-7-yl]-urea]: the melting point is 217 to 220 °C. Further, on cdk1/cyclinB, the IC50 was 442 nM. The IC50 on cdk2/cyclinA is 157 nM. In addition, on cdk2/cyclinE, the IC50 was determined as 140 nM. In addition, the IC50 at cdk4/cyclinD was 1050 nM.
With `Cc1cc(NS(=O)(=O)N(C)C)nc2nc(Nc3ccc(N4CCNCC4)cc3)ncc12` [Compound 71], the melting point was 228 to 230 °C (dec.). In addition, at cdk1/cyclinB, the IC50 is > 5000 nM. Moreover, the IC50 on cdk2/cyclinA is > 5000 nM. In addition, the IC50 on cdk2/cyclinE was > 5000 nM. Also, the IC50 at cdk4/cyclinD is > 5000 nM.
In the case of `O=C(Nc1ccc2cnc(Nc3ccc(N4CCNCC4)cc3)nc2n1)N1CCNCC1` [Compound 87, Piperazine-1-carboxylic acid [2-(4-piperazin-1-yl-phenylamino)-pyrido[2,3-d]pyrimidin-7-yl]-amide], the melting point was 220 °C (dec.). In addition, the IC50 on cdk1/cyclinB was > 5000 nM. At cdk2/cyclinA, the IC50 is > 5000 nM. On cdk2/cyclinE, the IC50 was > 5000 nM. For the same molecule, the IC50 on cdk4/cyclinD is > 5000 nM.
In the case of `C[C@@H]1CN(c2ccc(Nc3ncc4cc(F)c(NC(=O)NC5CCCCC5)nc4n3)cc2)C[C@H](C)N1` [Compound 52, 1-Cyclohexyl-3-{2-[4-(cis-3,5-dimethyl-piperazin-1-yl)-phenylamino]-6-fluoro-pyrido[2,3-d]pyrimidin-7-yl}-urea], the melting point lay within 227 to 229 °C. Also, the IC50 on cdk1/cyclinB came to 472 nM. Besides, the IC50 on cdk2/cyclinA is 213 nM. At cdk2/cyclinE, the IC50 was determined as 126 nM. In addition, at cdk4/cyclinD, the IC50 was 27 nM.
On to `Cc1cc(NC(=O)NC(C)(C)C)nc2nc(Nc3ccc(N4CCNCC4)cc3)ncc12` [Compound 4, 1-tert-Butyl-3-[5-methyl-2-(4-piperazin-1-yl-phenylamino)-pyrido[2,3-d]pyrimidin-7-yl]-urea], for which the melting point is 230 to 232 °C (dec.). Also, the IC50 on cdk1/cyclinB is > 5000 nM. On cdk2/cyclinA, the IC50 was > 5000 nM. The IC50 at cdk2/cyclinE is > 5000 nM. The IC50 at cdk4/cyclinD was found to be 1500 nM.
Take `CN(C)CCNC(=O)Nc1ccc2cnc(Nc3ccc(F)cc3)nc2n1` [Compound 99, 1-(2-Dimethylamino-ethyl)-3-[2-(4-fluoro-phenylamino)-pyrido[2,3-d]pyrimidin-7-yl]-urea]: the melting point lay in the range of 251 to 255 °C. Moreover, the IC50 on cdk1/cyclinB was 1810 nM. Also, the IC50 at cdk2/cyclinA is 1010 nM. The IC50 on cdk2/cyclinE turned out to be 410 nM. Further, on cdk4/cyclinD, the IC50 was > 5000 nM.
Turning to `C[C@@H]1CN(c2ccc(Nc3ncc4ccc(NC(=O)NC5CCCCC5)nc4n3)cc2)C[C@H](C)N1` [Compound 50, 1-Cyclohexyl-3-{2-[4-(cis-3,5-dimethyl-piperazin-1-yl)-phenylamino]-pyrido[2,3-d]pyrimidin-7-yl}-urea], the melting point is 228 °C (dec.). Also, the IC50 on cdk1/cyclinB amounted to 69 nM. At cdk2/cyclinA, the IC50 amounted to 22 nM. Further, on cdk2/cyclinE, the IC50 is 35 nM. Also, the IC50 at cdk4/cyclinD was determined as 7 nM.
Turning to `CC(=O)N1CCN(c2ccc(Nc3ncc4ccc(NC(=O)NCCCN5CCOCC5)nc4n3)cc2)CC1` [Compound 103, 1-{2-[4-(4-Acetyl-piperazin-1-yl)-phenylamino]-pyrido[2,3-d]pyrimidin-7-yl}-3-(3-morpholin-4-yl-propyl)-urea], the melting point is 221 to 225 °C (dec.). Further, the IC50 on cdk1/cyclinB was > 5000 nM. Moreover, at cdk2/cyclinA, the IC50 was > 5000 nM. Also, the IC50 at cdk2/cyclinE was > 5000 nM. For the same molecule, the IC50 at cdk4/cyclinD was > 5000 nM.
For `CC(=O)N1CCN(c2ccc(Nc3ncc4ccc(NC(=O)NC(C)(C)C)nc4n3)cc2)CC1` [Compound 5, 1-{2-[4-(4-Acetyl-piperazin-1-yl)-phenylamino]-pyrido[2,3-d]pyrimidin-7-yl}-3-tert-butyl-urea], the melting point was 206 to 208 °C (dec.). The IC50 on cdk1/cyclinB amounted to 463 nM. The IC50 on cdk2/cyclinA worked out at 130 nM. Further, at cdk2/cyclinE, the IC50 turned out to be 130 nM. Besides, the IC50 at cdk4/cyclinD was found to be 37 nM.
On to `C[C@@H]1CN(c2ccc(Nc3ncc4cc(Br)c(NC(=O)NC5CCCCC5)nc4n3)cc2)C[C@H](C)N1` (as salt: salt) [Compound 95, 1-{6-Bromo-2-[4-(cis-3,5-dimethyl-piperazin-1-yl)-phenylamino]-pyrido[2,3-d]pyrimidin-7-yl}-3-cyclohexyl-urea], for which the melting point was 198 °C (dec.).
